Measured values from publication PMC6471177 (Pharmaceutics, 2019).

System: P-gp
Experiment: in vitro
Conditions: rat, pH 7.4
Protocol: To evaluate the effect of LC478 on P-gp mediated efflux activity in rat’s small intestine, transport experiments were conducted following the previously reported method. The incubation medium (pH 7.4) involving […], 5 mM KCl, 1.2 mM CaCl2, 1.2 mM MgCl2, 25 mM NaHCO3, 1.6 mM Na2HPO4, 0.4 mM NaH2PO4, 5 mM D-glucose, and 5 mM D-mannitol was used throughout the transport experiments. […] The small intestine (2 cm from the proximal part of jejunum) was removed, opened along the mesenteric border and rinsed immediately in ice-cold buffer (pH 7.4) under carbogen O2/CO2 (95%/5%) bubbling. The specimens were fixed to 0.61 cm^2 surface area of cells in the Ussing chambers without harming the underlying muscle layer and formed two compartments, mucosal (M) and serosal (S) chambers. […] Cumulative corrections were made for previously removed samples and apparent permeability coefficients (Papp, cm/s) were calculated as follows: Papp = Q/A·c·t, where Q is the total amount of the drug permeated throughout the incubation time, A is the diffusion area of the Ussing chamber, c is the initial drug concentration in the donor compartment, and t is the total time of the experiment. Efflux ratios were calculated from Papp values by: Efflux ratio = secretory Papp/absorptive Papp.

Compound `CC(=O)O[C@@]12CO[C@@H]1C[C@H](O)[C@@]1(C)C(=O)[C@H](O)C3=C(C)[C@@H](OC(=O)[C@H](O)[C@@H](NC(=O)OC(C)(C)C)c4ccccc4)C[C@@](O)([C@@H](OC(=O)c4ccccc4)[C@H]21)C3(C)C` [docetaxel] has a Papp B→A at 3 h, 1 µM of 1.08 ± 0.115 ×10⁻⁶ cm/s.
